Measured values taken from paper PMC9858543, “Design, synthesis and evaluation of 2, 6, 8-substituted Imidazopyridine derivatives as potent PI3Kα inhibitors” (Journal of Enzyme Inhibition and Medicinal Chemistry, 2023).
Like-named read-outs stand apart in the source and are kept apart here.

Target: T1, PI3Kα (Homo sapiens, UniProt P42336)
T1 construct: purchased Invitrogen
Assay: In vitro PI3Kα enzymatic assay (ADP-Glo / Kinase-Glo, ATP 25 μM)
Format: biochemical
Details: mean ± SD of three determinations
Method: To screen the inhibitory activity of the target compounds against PI3Kα, the Kinase-Glo™ assay with ATP at 25 μM was utilised with PIK-75 as positive control. We chose to explore the SARs at three positions on the Imidazo[1,2-a]pyridine core. To start with, a set of 8-position modifications were prepared while keeping the morpholinyl amide substituent on 2-position fixed, since it allowed quick structure − activity profiling via coupling reactions of bromide with aryl borates or boronic acids. […] We then turned our attention back to the phenyl substituents.
Briefly, the compound, PI3K enzyme (PI3Kα from Invitrogen), the PIP2 (Life Technologies) substrate, and ATP (25 μM, Sigma) were diluted in kinase buffer to the indicated concentrations. The assay plate was covered and incubated at room temperature for 1 h. Then, the Kinase-Glo reagent (Promega) was added to the PI3Kα plate to stop the reaction, mixed briefly with centrifuge, shaken slowly on the shaker and then equilibrate for 120 min. Finally, add Kinase detection reagent to each well, shake 1 min, equilibrate for 30 min before reading on a plate reader for luminescence. The data were collected on Envision and presented in Excel. IC50 values were calculated from the inhibition curves.

[1] = PI3Kα, compound 10 μM, ATP 25 μM
[2] = PI3Kα, compound 10 μM, ATP 25 μM, read-out: % Inhibition at 10 μM

T1 sequence (P42336 whole entry): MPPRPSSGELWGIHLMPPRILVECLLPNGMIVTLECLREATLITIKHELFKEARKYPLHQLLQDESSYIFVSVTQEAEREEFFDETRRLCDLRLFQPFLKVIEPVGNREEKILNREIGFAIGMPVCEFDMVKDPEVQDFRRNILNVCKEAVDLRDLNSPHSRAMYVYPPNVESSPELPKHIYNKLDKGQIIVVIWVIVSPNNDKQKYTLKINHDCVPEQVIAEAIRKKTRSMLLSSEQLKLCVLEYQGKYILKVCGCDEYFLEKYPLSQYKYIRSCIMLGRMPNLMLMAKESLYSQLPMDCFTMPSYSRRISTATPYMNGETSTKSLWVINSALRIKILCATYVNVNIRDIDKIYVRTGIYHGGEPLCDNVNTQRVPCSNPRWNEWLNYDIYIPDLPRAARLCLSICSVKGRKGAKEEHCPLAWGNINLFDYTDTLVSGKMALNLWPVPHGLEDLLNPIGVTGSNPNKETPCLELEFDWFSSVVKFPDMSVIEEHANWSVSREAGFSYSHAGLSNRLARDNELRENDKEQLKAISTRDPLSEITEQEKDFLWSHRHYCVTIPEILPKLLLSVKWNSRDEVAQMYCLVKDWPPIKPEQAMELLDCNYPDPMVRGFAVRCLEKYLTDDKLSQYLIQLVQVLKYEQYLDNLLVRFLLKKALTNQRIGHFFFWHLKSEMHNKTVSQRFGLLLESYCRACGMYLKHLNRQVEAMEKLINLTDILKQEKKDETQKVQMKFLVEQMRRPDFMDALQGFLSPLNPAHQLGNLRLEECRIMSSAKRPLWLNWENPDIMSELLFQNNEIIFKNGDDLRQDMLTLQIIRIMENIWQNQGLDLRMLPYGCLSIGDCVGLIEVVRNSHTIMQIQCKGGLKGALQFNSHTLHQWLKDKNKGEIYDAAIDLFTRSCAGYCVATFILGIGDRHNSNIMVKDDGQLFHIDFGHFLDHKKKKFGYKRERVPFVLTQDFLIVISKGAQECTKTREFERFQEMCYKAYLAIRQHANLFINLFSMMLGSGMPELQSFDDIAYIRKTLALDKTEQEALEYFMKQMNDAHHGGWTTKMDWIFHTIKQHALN
T1 sequence (P27986 whole entry partner): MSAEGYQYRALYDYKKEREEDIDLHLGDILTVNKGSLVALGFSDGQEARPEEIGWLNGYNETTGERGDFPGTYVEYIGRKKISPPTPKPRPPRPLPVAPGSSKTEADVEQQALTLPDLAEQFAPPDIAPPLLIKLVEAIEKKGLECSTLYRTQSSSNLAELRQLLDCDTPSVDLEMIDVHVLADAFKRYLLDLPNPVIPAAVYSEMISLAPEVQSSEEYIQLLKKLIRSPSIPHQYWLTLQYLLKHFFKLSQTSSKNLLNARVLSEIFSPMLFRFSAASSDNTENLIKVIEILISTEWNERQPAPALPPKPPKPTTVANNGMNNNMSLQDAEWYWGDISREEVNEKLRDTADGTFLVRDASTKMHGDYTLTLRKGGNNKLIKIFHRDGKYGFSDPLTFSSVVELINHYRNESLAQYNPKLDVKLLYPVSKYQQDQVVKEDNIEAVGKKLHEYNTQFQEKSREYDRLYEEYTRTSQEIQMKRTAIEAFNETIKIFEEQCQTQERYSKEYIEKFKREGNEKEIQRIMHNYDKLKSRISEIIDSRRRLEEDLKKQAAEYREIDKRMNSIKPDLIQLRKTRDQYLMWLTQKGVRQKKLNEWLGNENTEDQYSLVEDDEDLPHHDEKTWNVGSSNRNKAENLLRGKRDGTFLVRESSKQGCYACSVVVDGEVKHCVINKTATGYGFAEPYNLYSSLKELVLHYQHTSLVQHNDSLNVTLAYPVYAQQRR

Compound | inhibition at 10 µM [2] [%] | further results
1-Cyclohexyl-3–(3-(6-methyl-2–(4-methylpiperidine-1-carbonyl)Imidazo[1,2-a]pyridin-8-yl)phenyl)urea [Compound 33] | – | % Inhibition at 10 μM [1]: 44.5 ± 1.2%
Cc1cc(-c2ccc(F)cc2)c2nc(C(=O)N3CCOCC3)cn2c1 [Compound 15, (8–(4-Fluorophenyl)-6-methylImidazo[1,2-a]pyridine-2-yl)(morpholino)methanone] | 31.9 ± 2.9 | –
Cc1cc(-c2cccc(F)c2)c2nc(C(=O)N3CCOCC3)cn2c1 [Compound 16, (8–(3-Fluorophenyl)-6-methylImidazo[1,2-a]pyridin-2-yl)(morpholino)methanone] | 38.2 ± 3.6 | –
Cc1cc(-c2ccccc2F)c2nc(C(=O)N3CCOCC3)cn2c1 [Compound 17, (8–(2-Fluorophenyl)-6-methylImidazo[1,2-a]pyridin-2-yl)(morpholino)methanone] | 14.1 ± 2.7 | –
Cc1cc(-c2ccc(NC(=O)c3cccc(F)c3)cc2)c2nc(C(=O)N3CCOCC3)cn2c1 [Compound 18, 3-Fluoro-N-(4–(6-methyl-2-(morpholine-4-carbonyl)Imidazo[1,2-a]pyridin-8-yl)phenyl)benzamide] | 47.6 ± 3.9 | –
Cc1cc(-c2cccnc2)c2nc(C(=O)N3CCOCC3)cn2c1 [Compound 20, (6-Methyl-8-(pyridin-3-yl)Imidazo[1,2-a]pyridin-2-yl)(morpholino)methanone] | 30.2 ± 2.1 | –
COc1ccc(-c2cc(C)cn3cc(C(=O)N4CCOCC4)nc23)cn1 [Compound 21, (8–(6-Methoxypyridin-3-yl)-6-methylImidazo[1,2-a]pyridin-2-yl)(morpholino)methanone] | 39.9 ± 3 | –
Cc1cc(-c2ccc(F)cc2)c2nc(C(=O)N3CCCC3)cn2c1 [Compound 22, (8–(4-Fluorophenyl)-6-methylImidazo[1,2-a]pyridin-2-yl)(pyrrolidin-1-yl)methanone] | 33.3 ± 4.2 | –
Cc1cc(-c2cccc(F)c2)c2nc(C(=O)N3CCCC3)cn2c1 [Compound 23, (8–(3-Fluorophenyl)-6-methylImidazo[1,2-a]pyridin-2-yl)(pyrrolidin-1-yl)methanone] | 43.9 ± 1.8 | –
Cc1cc(-c2cccnc2)c2nc(C(=O)N3CCCC3)cn2c1 [Compound 24, (6-Methyl-8-(pyridin-3-yl)Imidazo[1,2-a]pyridin-2-yl)(pyrrolidin-1-yl)methanone] | 29.6 ± 2.1 | –
COc1ccc(-c2cc(C)cn3cc(C(=O)N4CCCC4)nc23)cn1 [Compound 25, (8–(6-Methoxypyridin-3-yl)-6-methylImidazo[1,2-a]pyridin-2-yl)(pyrrolidin-1-yl)methanone] | 44.3 ± 1.5 | –
Cc1cc(-c2ccc(NC(=O)c3cccc(F)c3)cc2)c2nc(C(=O)N3CCCC3)cn2c1 [Compound 26, 3-Fluoro-N-(4–(6-methyl-2-(pyrrolidine-1-carbonyl)Imidazo[1,2-a]pyridin-8-yl)phenyl)benzamide] | 57.9 ± 4.6 | –
CCN(CC)S(=O)(=O)c1cccc(-c2cc(C)cn3cc(C(=O)N4CCCC4)nc23)c1 [Compound 28, N,N-Diethyl-3–(6-methyl-2-(pyrrolidine-1-carbonyl)Imidazo[1,2-a]pyridin-8-yl)benzenesulfonamide] | 66.1 ± 4.4 | –
Cc1cc(-c2cccc(F)c2)c2nc(C(=O)N3CCC(C)CC3)cn2c1 [Compound 29, (8–(3-Fluorophenyl)-6-methylImidazo[1,2-a]pyridin-2-yl)(4-methylpiperidin-1-yl)methanone] | 30.4 ± 3.1 | –
Cc1cc(-c2ccncc2)c2nc(C(=O)N3CCC(C)CC3)cn2c1 [Compound 30, (6-Methyl-8-(pyridin-4-yl)Imidazo[1,2-a]pyridin-2-yl)(4-methylpiperidin-1-yl)methanone] | 9.3 ± 1.7 | –
Cc1cc(-c2cccnc2)c2nc(C(=O)N3CCC(C)CC3)cn2c1 [Compound 31, (6-Methyl-8-(pyridin-3-yl)Imidazo[1,2-a]pyridin-2-yl)(4-methylpiperidin-1-yl)methanone] | 28.5 ± 1.6 | –
COc1ncc(-c2cc(C)cn3cc(C(=O)N4CCCC4)nc23)cc1NS(=O)(=O)c1ccccc1 [Compound 34, N-(2-methoxy-5–(6-methyl-2-(pyrrolidine-1-carbonyl)Imidazo[1,2-a]pyridin-8-yl)pyridin-3-yl)benzenesulfonamide] | 49.8 ± 1.6 | –
COc1ncc(-c2cc(C)cn3cc(C(=O)N4CCOCC4)nc23)cc1NS(=O)(=O)c1ccc(F)cc1F [Compound 37, 2,4-Difluoro-N-(2-methoxy-5–(6-methyl-2-(morpholine-4-carbonyl)Imidazo[1,2-a]pyridin-8-yl)pyridin-3-yl)benzenesulfonamide] | 67.5 ± 0.3 | –
COc1ncc(-c2cc(C)cn3cc(C(=O)NCCN4CCOCC4)nc23)cc1NS(=O)(=O)c1ccc(F)cc1F [Compound 38, 8–(5-((2,4-Difluorophenyl)sulfonamido)-6-methoxypyridin-3-yl)-6-methyl-N-(2-morpholinoethyl)Imidazo[1,2-a]pyridine-2-carboxamide] | 81.6 ± 2.8 | –
COc1ncc(-c2cc(C)cn3cc(C(=O)NCCCN4CCOCC4)nc23)cc1NS(=O)(=O)c1ccc(F)cc1F [Compound 39, 8–(5-((2,4-Difluorophenyl)sulfonamido)-6-methoxypyridin-3-yl)-6-methyl-N-(3-morpholinopropyl)Imidazo[1,2-a]pyridine-2-carboxamide] | 70.2 ± 3.6 | –
COc1ncc(-c2cc(C)cn3cc(C(=O)NCCCN4CCOCC4)nc23)cc1NS(=O)(=O)c1ccc(F)cc1 [Compound 41, 8–(5-((4-Fluorophenyl)sulfonamido)-6-methoxypyridin-3-yl)-6-methyl-N-(3-morpholinopropyl)Imidazo[1,2-a]pyridine-2-carboxamide] | 75.7 ± 2.9 | –
COc1ncc(-c2cc(C)cn3cc(C(=O)N4CCOCC4)nc23)cc1NS(=O)(=O)c1ccc(F)cc1 [Compound 42, 4-Fluoro-N-(2-methoxy-5–(6-methyl-2-(morpholine-4-carbonyl)Imidazo[1,2-a]pyridin-8-yl)pyridin-3-yl)benzenesulfonamide] | 69.2 ± 6.4 | –
COc1ncc(-c2cc(C)cn3cc(C(=O)N4CCC(C)CC4)nc23)cc1NS(=O)(=O)c1ccc(F)cc1 [Compound 43, 4-Fluoro-N-(2-methoxy-5–(6-methyl-2–(4-methylpiperidine-1-carbonyl)Imidazo[1,2-a]pyridin-8-yl)pyridin-3-yl)benzenesulfonamide] | 62.8 ± 4.6 | –
COc1ncc(-c2cc(C)cn3cc(C(=O)N4CCN(C)CC4)nc23)cc1NS(=O)(=O)c1ccc(F)cc1 [Compound 44, 4-Fluoro-N-(2-methoxy-5–(6-methyl-2–(4-methylpiperazine-1-carbonyl)Imidazo[1,2-a]pyridin-8-yl)pyridin-3-yl)benzenesulfonamide] | 53.4 ± 5.1 | –
COc1ncc(-c2cc(Cl)cn3cc(C(=O)NCCCN4CCOCC4)nc23)cc1NS(=O)(=O)c1ccc(F)cc1F [Compound 45, 6-Chloro-8–(5-((2,4-difluorophenyl)sulfonamido)-6-methoxypyridin-3-yl)-N-(3-morpholinopropyl)Imidazo[1,2-a]pyridine-2-carboxamide] | 59.8 ± 3.5 | –
COc1ncc(-c2cccn3cc(C(=O)N4CCC(C)CC4)nc23)cc1NS(=O)(=O)c1ccc(F)cc1 [Compound 46, 4-Fluoro-N-(2-methoxy-5–(2-(4-methylpiperidine-1-carbonyl)Imidazo[1,2-a]pyridin-8-yl)pyridin-3-yl)benzenesulfonamide] | 40.2 ± 3 | –
Cc1ccc([N+](=O)[O-])cc1S(=O)(=O)N(C)/N=C/c1cnc2ccc(Br)cn12 [PIK-75, reference compound] | – | inhibition at 10 µM (read-out: % Inhibition at 10 μM, PI3Kα, compound 10 μM, ATP 25 μM): 98.2 ± 1.6%
(6-Methyl-8–(3-(morpholinosulfonyl)phenyl)Imidazo[1,2-a]pyridin-2-yl)(pyrrolidin-1-yl)methanone [Compound 27] | – | % Inhibition at 10 μM [1]: 60.9 ± 6.0%
N,N-Diethyl-3–(6-methyl-2-(morpholine-4-carbonyl)Imidazo[1,2-a]pyridin-8-yl)benzenesulfonamide [Compound 19] | – | % Inhibition at 10 μM [1]: 58.5 ± 1.6%
N,N-Diethyl-3–(6-methyl-2–(4-methylpiperidine-1-carbonyl)Imidazo[1,2-a]pyridin-8-yl)benzenesulfonamide [Compound 32] | – | % Inhibition at 10 μM [1]: 50.6 ± 0.9%
